Results: patent US7429396B2, “Antifungal composition, its fungicidal effect on pathogenic dermatophytes, and process for inhibiting growth of fungi” (Bio-Botanica, Inc., priority 2003, dated 2008)

Assays:
E. coli ATCC 25922 = test: Agar Dilution susceptibility method (Example 5); format: cell-based, Escherichia coli
Procedure: (§1) The Agar Dilution susceptibility method was used to test the effectiveness of the antimicrobial composition of Example 1. The organisms used were S. aureus ATCC 29213, E. coli ATCC 25922, S. typhimurium ATCC 14028, K. pneumoniae ATCC 10031, P. aeruginosa ATCC 27853, C. albicans ATCC 10231, and M. smegmatis ATCC 14468. The organisms were maintained on Tryptic Soy Agar (TSA) slants. For each week, the organisms were cultured in 10 ml of Tryptic Soy Broth (TSB). After incubation at 37° C. for 17 hours (48 hours for M. smegmatis), the organism suspensions were diluted with 10 ml of sterile saline as shown in Table 4. The mold Aspergillus niger was sustained on a Sabouraud Dextrose Agar slant. The sample was then cultured in 10 ml of Tryptic Soy Broth and incubated for 7 days at 22° C. The mold was then diluted in 0.1% Tween 80 in saline. The diluted bacteria and yeast organisms were then inoculated onto the prepared sample plates with a 1 μl loop. The mold Aspergillus niger was added to prepared sample tubes with a 100 μl pipette.
(§2) Phenyloxyethanol (PE), phenylethyl alcohol (PEA) and methyl/propylparabens (MP) in a ratio of 5:4 were initially screened at their commonly recommended effective concentrations of 0.3% v/v (3 μl/ml); 1% v/v (10 μl/ml); and 0.18% w/v (1 mg methyl and 0.8 mg propylparaben/ml), respectively. The antimicrobial agent was used at an initial concentration of 0.15% v/v (1.5 μl/ml).
(§3) The sample plates for the bacteria and yeast were prepared as follows: • Prepare 10 ml tubes of TSA and allow to cool to 50° C., • Add the calculated amount of the preservative or antimicrobial agent to 100 μl dimethylsulfoxide (DMSO) to achieve the specified concentration per ml TSA when 100 μl of the DMSO solution are added to a test tube containing 10 ml of TSA, • Vortex to homogenize the mixture in TSA, • Pour TSA and the preservative or antimicrobial agent into a properly labeled Petri dish, • Allow to cool overnight at room temperature.
(§4) The prepared sample plates were divided into seven sections and the plates labeled according to the preservative or antimicrobial agent. Each section was labeled according to the microorganism to be applied to each section. The diluted organism suspensions were inoculated onto their appropriate section with a 1 μl loop, streaking radially from the center to the outer edge of the plate. A positive control plate was prepared without a preservative or antimicrobial agent of Example 1. The plates were then incubated at 37° C. for 48 hours, recording the results at 24 and 48 hours.
(§5) The results for the bacteria and yeast were scored in relation to the growth present on the positive control plate. Growth (G) was noted when there was full growth visible and the organism was not affected. […]

A. niger ATCC 16404 = test: Broth tube susceptibility test of the mold (Example 5); format: cell-based, Aspergillus niger
Procedure: as §1
The sample for the mold Aspergillus niger was prepared as follows: • Prepare 10 ml tubes of Tryptic Soy Broth (TSB), • Add the calculated amount of the sample to 100 μl dimethylsulfoxide (DMSO) to achieve the specified concentration per ml TSB. Then 100 μl of the DMSO is added to a test tube containing 10 ml of TSB, • Vortex to homogenize the mixture in TSB, • Add 100 μl of Aspergillus niger suspension to a tube of TSB not inoculated with any sample as a positive control.
The prepared sample tubes were inoculated with 100 μl of the mold Aspergillus niger suspension to produce a final mold spore concentration in each sample tube of 1×10^4 to 1×10^5 spores/ml. The prepared sample tubes of TSB were incubated at 37° C. for 5 days with the results being recorded at 3 and 5 days.
The results for Aspergillus niger were scored in relation to the growth present in the positive control tube. The growth (G) was noted when there was full growth visible as determined by the tube appearing cloudy to the same extent as the positive control tube. Partial activity (P) was recorded when the sample tube of TSB was less turbid than the control tube. No growth (I) was recorded when there was total inhibition and broth in the tube appeared clear.
(§6) In this example and the tables, the amount of the antimicrobial agent is expressed in terms of the volume of antimicrobial sample. The concentration of the antimicrobial agent of 1 μl/ml corresponds to 1 mg (milligram)/ml of the antimicrobial agent. The MIC obtained was confirmed by three consecutive results. DMSO was used to solubilize the test samples and help to diffuse the lipophilic ingredients into the agar. DMSO was used at a concentration not exceeding 1%.

K. pneumoniae ATCC 10031 = test: Agar Dilution susceptibility method (Example 5); format: cell-based, Klebsiella pneumoniae
Procedure: as §1, §2, §3, §4, §5, §6

P. aeruginosa ATCC 27853 = test: Agar Dilution susceptibility method (Example 5); format: cell-based, Pseudomonas aeruginosa
Procedure: as §1, §2
as §3, with “temperature. […]” for “temperature.”
The results for the bacteria and yeast were scored in relation to the growth present on the positive control plate. […]

Minimum Inhibitory Concentration (MIC) (sample/ml of agar or broth) (E. coli ATCC 25922): 5.0 μl/ml | Minimum Inhibitory Concentration (MIC) (sample/ml of agar or broth) (A. niger ATCC 16404): 2.5 μl/ml | Minimum Inhibitory Concentration (MIC) (sample/ml of agar or broth) (K. pneumoniae ATCC 10031): 5.0 μl/ml | Minimum Inhibitory Concentration (MIC) (sample/ml of agar or broth) (P. aeruginosa ATCC 27853): 5.0 μl/ml
SMILES: OCCc1ccccc1 [Phenylethyl Alcohol]
growth score (E. coli ATCC 25922; 3.0 μl/ml): I | growth score (E. coli ATCC 25922; 5.0 μl/ml): I | growth score (E. coli ATCC 25922; 6.0 μl/ml): I | growth score (A. niger ATCC 16404; 3.0 μl/ml): I | growth score (A. niger ATCC 16404; 5.0 μl/ml): I | growth score (A. niger ATCC 16404; 6.0 μl/ml): I | growth score (K. pneumoniae ATCC 10031; 1.5 μl/ml): I | growth score (K. pneumoniae ATCC 10031; 3.0 μl/ml): I | growth score (K. pneumoniae ATCC 10031; 5.0 μl/ml): I | growth score (K. pneumoniae ATCC 10031; 6.0 μl/ml): I | growth score (P. aeruginosa ATCC 27853; 5.0 μl/ml): I | growth score (P. aeruginosa ATCC 27853; 6.0 μl/ml): I
